Numbered stars: 1 amine (or outer) side, 2 acyl side, 3 side chain; on linkers, the order of the positions; unused ones are H or OH. Bridge positions count the residues as written; N and C are the ends. Square brackets hold non-standard residues; d marks the D form. Peptide text beside a SMILES is read from it. I, II: the chains in the order shown. X3 = CN(CCCNC(=O)CCNC(=O)CCSCC(=O)[*:1])CCCNC(=O)CCNC(=O)CCSCC(=O)[*:2]; Phe(4-guanidino) = N=C(N)Nc1ccc(C[C@H](N)C(=O)O)cc1; X1 = O=C(C(=O)[*:2])[C@H](Cc1ccc(O)cc1)N[*:1]; NHCH2CH2N(Me)CH2CO = CN(CCN[*:1])CC(=O)[*:2]; NMeL = CN[C@@H](CC(C)C)C(=O)O; Pen = CC(C)(S)[C@H](N)C(=O)O; Suc = O=C(CCC(=O)[*:2])[*:1]; Sar = CNCC(=O)O
How the values were obtained:
[1] = molecular target: T1, IgG receptor FcRn large subunit p51 (Homo sapiens, UniProt P55899); assay: Inhibition of IgG binding to soluble human FcRn after 2 hrs by competition ELISA
[2] = molecular target: T1, IgG receptor FcRn large subunit p51; assay: Ratio of RF-Pen-TGHFG-Sar-NMeLeu-YPC IC50 to compound IC50 for soluble human FcRn

T1 sequence (P55899 whole entry): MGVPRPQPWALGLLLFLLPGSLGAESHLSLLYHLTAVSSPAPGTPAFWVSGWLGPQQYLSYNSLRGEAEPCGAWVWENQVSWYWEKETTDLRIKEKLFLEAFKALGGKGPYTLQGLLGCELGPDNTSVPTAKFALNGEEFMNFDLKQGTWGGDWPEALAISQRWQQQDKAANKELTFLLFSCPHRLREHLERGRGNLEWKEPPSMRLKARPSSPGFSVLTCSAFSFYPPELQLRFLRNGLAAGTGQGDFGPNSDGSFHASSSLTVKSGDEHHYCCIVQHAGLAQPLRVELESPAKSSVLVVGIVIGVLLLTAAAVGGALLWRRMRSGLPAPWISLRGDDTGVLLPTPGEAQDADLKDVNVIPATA

| IC50 [1] [nM] | Ratio IC50 [2] | Structure (SMILES) |
| --- | --- | --- |
| 2.4 |  | CC(C)C[C@H]1C(=O)N[C@@H](Cc2ccc(O)cc2)C(=O)C(=O)N2CCC[C@H]2C(=O)N[C@H](C(N)=O)CSSC(C)(C)[C@H](NC(=O)[C@H](Cc2ccccc2)NC(=O)[C@H](CCCNC(=N)N)NC(=O)CCNC(=O)CCNC(=O)CCNC(=O)CN(C)CCNC(=O)CCC(=O)N[C@@H](CCCNC(=N)N)C(=O)N[C@@H](Cc2ccccc2)C(=O)N[C@@H]2C(=O)N[C@@H]([C@@H](C)O)C(=O)NCC(=O)N[C@@H](Cc3cnc[nH]3)C(=O)N[C@@H](Cc3ccccc3)C(=O)NCC(=O)N(C)CC(=O)N(C)[C@@H](CC(C)C)C(=O)N[C@@H](Cc3ccc(O)cc3)C(=O)C(=O)N3CCC[C@H]3C(=O)N[C@H](C(N)=O)CSSC2(C)C)C(=O)N[C@@H]([C@@H](C)O)C(=O)NCC(=O)N[C@@H](Cc2cnc[nH]2)C(=O)N[C@@H](Cc2ccccc2)C(=O)NCC(=O)N(C)CC(=O)N1C |
|  | 110 | CC(C)C[C@H]1C(=O)N[C@@H](Cc2ccc(O)cc2)C(=O)C(=O)N2CCC[C@H]2C(=O)N[C@H](C(N)=O)CSSC(C)(C)[C@H](NC(=O)[C@H](Cc2ccccc2)NC(=O)[C@H](CCCNC(=N)N)NC(=O)CN(C)CC(=O)N[C@@H](CCCNC(=N)N)C(=O)N[C@@H](Cc2ccccc2)C(=O)N[C@@H]2C(=O)N[C@@H]([C@@H](C)O)C(=O)NCC(=O)N[C@@H](Cc3c[nH]cn3)C(=O)N[C@@H](Cc3ccccc3)C(=O)NCC(=O)N(C)CC(=O)N(C)[C@@H](CC(C)C)C(=O)N[C@@H](Cc3ccc(O)cc3)C(=O)C(=O)N3CCC[C@H]3C(=O)N[C@H](C(N)=O)CSSC2(C)C)C(=O)N[C@@H]([C@@H](C)O)C(=O)NCC(=O)N[C@@H](Cc2c[nH]cn2)C(=O)N[C@@H](Cc2ccccc2)C(=O)NCC(=O)N(C)CC(=O)N1C |
| 20 |  | CC(C)C[C@H]1C(=O)N[C@@H](Cc2ccc(O)cc2)C(=O)C(=O)N2CCC[C@H]2C(=O)N[C@H](C(N)=O)CSSC(C)(C)[C@H](NC(=O)[C@H](Cc2ccccc2)NC(=O)[C@H](CCCNC(=N)N)NC(=O)CCC(=O)N[C@@H](CCCNC(=N)N)C(=O)N[C@@H](Cc2ccccc2)C(=O)N[C@@H]2C(=O)N[C@@H]([C@@H](C)O)C(=O)NCC(=O)N[C@@H](Cc3ccc(N=C(N)N)cc3)C(=O)NCC(=O)N(C)CC(=O)N(C)[C@@H](CC(C)C)C(=O)N[C@@H](Cc3ccc(O)cc3)C(=O)C(=O)N3CCC[C@H]3C(=O)N[C@H](C(N)=O)CSSC2(C)C)C(=O)N[C@@H]([C@@H](C)O)C(=O)NCC(=O)N[C@@H](Cc2ccc(N=C(N)N)cc2)C(=O)NCC(=O)N(C)CC(=O)N1C (I: RF[Pen]TG[Phe(4-guanidino)]G[Sar][NMeL][X1]PC-NH2 / II: RF[Pen]TG[Phe(4-guanidino)]G[Sar][NMeL][X1]PC-NH2; disulfide I:3-I:12, II:3-II:12; linker I:N-II:N via Suc) |
| 4.8 |  | CC(C)C[C@H]1C(=O)N[C@@H](Cc2ccc(O)cc2)C(=O)C(=O)N2CCC[C@H]2C(=O)N[C@H](C(N)=O)CSSC(C)(C)[C@H](NC(=O)[C@H](Cc2ccccc2)NC(=O)[C@H](CCCNC(=N)N)NC(=O)CCOCCOCCOCCOCCOCCC(=O)N[C@@H](CCCNC(=N)N)C(=O)N[C@@H](Cc2ccccc2)C(=O)N[C@@H]2C(=O)N[C@@H]([C@@H](C)O)C(=O)NCC(=O)N[C@@H](Cc3cnc[nH]3)C(=O)N[C@@H](Cc3ccccc3)C(=O)NCC(=O)N(C)CC(=O)N(C)[C@@H](CC(C)C)C(=O)N[C@@H](Cc3ccc(O)cc3)C(=O)C(=O)N3CCC[C@H]3C(=O)N[C@H](C(N)=O)CSSC2(C)C)C(=O)N[C@@H]([C@@H](C)O)C(=O)NCC(=O)N[C@@H](Cc2cnc[nH]2)C(=O)N[C@@H](Cc2ccccc2)C(=O)NCC(=O)N(C)CC(=O)N1C |
| 3.9 |  | CC(C)C[C@H]1C(=O)N[C@@H](Cc2ccc(O)cc2)C(=O)C(=O)N2CCC[C@H]2C(=O)N[C@H](C(N)=O)CSSC(C)(C)[C@H](NC(=O)[C@H](Cc2ccccc2)NC(=O)[C@H](CCCNC(=N)N)NC(=O)CN(C)CCNC(=O)CNC(=O)[C@@H]2CSSC(C)(C)[C@H](NC(=O)[C@H](Cc3ccccc3)NC(=O)[C@@H](N)CCCNC(=N)N)C(=O)N[C@@H]([C@@H](C)O)C(=O)NCC(=O)N[C@@H](Cc3cnc[nH]3)C(=O)N[C@@H](Cc3ccccc3)C(=O)NCC(=O)N(C)CC(=O)N(C)[C@@H](CC(C)C)C(=O)N[C@@H](Cc3ccc(O)cc3)C(=O)C(=O)N3CCC[C@H]3C(=O)N2)C(=O)N[C@@H]([C@@H](C)O)C(=O)NCC(=O)N[C@@H](Cc2cnc[nH]2)C(=O)N[C@@H](Cc2ccccc2)C(=O)NCC(=O)N(C)CC(=O)N1C (H-RF[Pen]TGHFG[Sar][NMeL][X1]PCG[NHCH2CH2N(Me)CH2CO]RF[Pen]TGHFG[Sar][NMeL][X1]PC-NH2; disulfide 3-13, 18-28) |
| 4.7 |  | CC(C)C[C@H]1C(=O)N[C@@H](Cc2ccc(O)cc2)C(=O)C(=O)N2CCC[C@H]2C(=O)N[C@H](C(N)=O)CSSC(C)(C)[C@H](NC(=O)[C@H](Cc2ccccc2)NC(=O)[C@H](CCCNC(=N)N)NC(=O)CN(C)CC(=O)N[C@@H](CCCNC(=N)N)C(=O)N[C@@H](Cc2ccccc2)C(=O)N[C@@H]2C(=O)N[C@@H]([C@@H](C)O)C(=O)NCC(=O)N[C@@H](Cc3cnc[nH]3)C(=O)N[C@@H](Cc3ccccc3)C(=O)NCC(=O)N(C)CC(=O)N(C)[C@@H](CC(C)C)C(=O)N[C@@H](Cc3ccc(O)cc3)C(=O)C(=O)N3CCC[C@H]3C(=O)N[C@H](C(N)=O)CSSC2(C)C)C(=O)N[C@@H]([C@@H](C)O)C(=O)NCC(=O)N[C@@H](Cc2cnc[nH]2)C(=O)N[C@@H](Cc2ccccc2)C(=O)NCC(=O)N(C)CC(=O)N1C |
| 2.4 |  | CC(C)C[C@H]1C(=O)N[C@@H](Cc2ccc(O)cc2)C(=O)C(=O)N2CCC[C@H]2C(=O)N[C@H](C(N)=O)CSSC(C)(C)[C@H](NC(=O)[C@H](Cc2ccccc2)NC(=O)[C@H](CCCNC(=N)N)NC(=O)CCC(=O)N[C@@H](CCCNC(=N)N)C(=O)N[C@@H](Cc2ccccc2)C(=O)N[C@@H]2C(=O)N[C@@H]([C@@H](C)O)C(=O)NCC(=O)N[C@@H](Cc3cnc[nH]3)C(=O)N[C@@H](Cc3ccccc3)C(=O)NCC(=O)N(C)CC(=O)N(C)[C@@H](CC(C)C)C(=O)N[C@@H](Cc3ccc(O)cc3)C(=O)C(=O)N3CCC[C@H]3C(=O)N[C@H](C(N)=O)CSSC2(C)C)C(=O)N[C@@H]([C@@H](C)O)C(=O)NCC(=O)N[C@@H](Cc2cnc[nH]2)C(=O)N[C@@H](Cc2ccccc2)C(=O)NCC(=O)N(C)CC(=O)N1C |
| 3000 |  | CC(C)C[C@@H]1NC(=O)CNC(=O)CNC(=O)[C@H](Cc2ccccc2)NC(=O)[C@H](Cc2cnc[nH]2)NC(=O)CNC(=O)[C@H]([C@@H](C)O)NC(=O)[C@@H](NC(=O)[C@H](Cc2ccccc2)NC(=O)[C@H](CCCNC(=N)N)NC(=O)CCC(=O)NCCN(C)CC(=O)N[C@@H](CCCNC(=N)N)C(=O)N[C@@H](Cc2ccccc2)C(=O)N[C@H]2CSSC[C@@H](C(N)=O)NC(=O)[C@@H]3CCCN3C(=O)C(=O)[C@H](Cc3ccc(O)cc3)NC(=O)[C@H](CC(C)C)NC(=O)CNC(=O)CNC(=O)[C@H](Cc3ccccc3)NC(=O)[C@H](Cc3cnc[nH]3)NC(=O)CNC(=O)[C@H]([C@@H](C)O)NC2=O)CSSC[C@@H](C(N)=O)NC(=O)[C@@H]2CCCN2C(=O)C(=O)[C@H](Cc2ccc(O)cc2)NC1=O |
| 3.9 |  | CC(C)C[C@H]1C(=O)N[C@@H](Cc2ccc(O)cc2)C(=O)C(=O)N2CCC[C@H]2C(=O)N[C@H](C(N)=O)CSSC(C)(C)[C@H](NC(=O)[C@H](Cc2ccccc2)NC(=O)[C@H](CCCNC(=N)N)NC(=O)CCC(=O)NCCN(C)CC(=O)N[C@@H](CCCNC(=N)N)C(=O)N[C@@H](Cc2ccccc2)C(=O)N[C@@H]2C(=O)N[C@@H]([C@@H](C)O)C(=O)NCC(=O)N[C@@H](Cc3cnc[nH]3)C(=O)N[C@@H](Cc3ccccc3)C(=O)N[C@H]3CCCN(CC(=O)N(C)[C@@H](CC(C)C)C(=O)N[C@@H](Cc4ccc(O)cc4)C(=O)C(=O)N4CCC[C@H]4C(=O)N[C@H](C(N)=O)CSSC2(C)C)C3=O)C(=O)N[C@@H]([C@@H](C)O)C(=O)NCC(=O)N[C@@H](Cc2cnc[nH]2)C(=O)N[C@@H](Cc2ccccc2)C(=O)N[C@H]2CCCN(CC(=O)N1C)C2=O |
| 5 |  | CC(C)C[C@H]1C(=O)N[C@@H](Cc2ccc(O)cc2)C(=O)C(=O)N2CCC[C@H]2C(=O)N[C@H](C(N)=O)CSSC(C)(C)[C@H](NC(=O)[C@H](Cc2ccccc2)NC(=O)[C@H](CCCNC(=N)N)NC(=O)CC(C)(C)CC(=O)N[C@@H](CCCNC(=N)N)C(=O)N[C@@H](Cc2ccccc2)C(=O)N[C@@H]2C(=O)N[C@@H]([C@@H](C)O)C(=O)NCC(=O)N[C@@H](Cc3cnc[nH]3)C(=O)N[C@@H](Cc3ccccc3)C(=O)NCC(=O)N(C)CC(=O)N(C)[C@@H](CC(C)C)C(=O)N[C@@H](Cc3ccc(O)cc3)C(=O)C(=O)N3CCC[C@H]3C(=O)N[C@H](C(N)=O)CSSC2(C)C)C(=O)N[C@@H]([C@@H](C)O)C(=O)NCC(=O)N[C@@H](Cc2cnc[nH]2)C(=O)N[C@@H](Cc2ccccc2)C(=O)NCC(=O)N(C)CC(=O)N1C |
| 2400 |  | CC(C)C[C@H]1C(=O)N[C@@H](Cc2ccc(O)cc2)C(=O)C(=O)N2CCC[C@H]2C(=O)N[C@H](C(=O)N[C@@H](CC(N)=O)C(=O)NCC(=O)N2CCC[C@H]2C(N)=O)CCCCNC(=O)C[C@H](NC(=O)[C@H](Cc2ccccc2)NC(=O)CSCCC(=O)NCCC(=O)NCCCN(C)CCCNC(=O)CCNC(=O)CCSCC(=O)N[C@@H](CCC(N)=O)C(=O)N[C@@H](CCCNC(=N)N)C(=O)N[C@@H](Cc2ccccc2)C(=O)N[C@H]2CC(=O)NCCCC[C@@H](C(=O)N[C@@H](CC(N)=O)C(=O)NCC(=O)N3CCC[C@H]3C(N)=O)NC(=O)[C@@H]3CCCN3C(=O)C(=O)[C@H](Cc3ccc(O)cc3)NC(=O)[C@H](CC(C)C)N(C)C(=O)CN(C)C(=O)CNC(=O)[C@H](Cc3ccccc3)NC(=O)[C@H](Cc3cnc[nH]3)NC(=O)CNC(=O)[C@H]([C@@H](C)O)NC2=O)C(=O)N[C@@H]([C@@H](C)O)C(=O)NCC(=O)N[C@@H](Cc2cnc[nH]2)C(=O)N[C@@H](Cc2ccccc2)C(=O)NCC(=O)N(C)CC(=O)N1C (I: QRFDTGHFG[Sar][NMeL][X1]PKNGP-NH2 / II: FDTGHFG[Sar][NMeL][X1]PKNGP-NH2; lactam I:4-I:14, II:2-II:12; linker I:N-II:N via X3) |
